Results on 24 molecules are retold here after US9365583B2, “Substituted pyrazoles and uses thereof” (Genentech, Inc., priority 2013, dated 2016).

A value given as a limit tells only on which side of the number the result lay.

In this assay the target is T1, N-terminally GST-tagged DLK (catalytic domain amino acid 1-520) (Homo sapiens, UniProt Q12852).
T1 construct: N-terminally GST-tagged DLK (catalytic domain amino acid 1-520); purchased Carna Bioscience
T1 sequence (Q12852 1-520): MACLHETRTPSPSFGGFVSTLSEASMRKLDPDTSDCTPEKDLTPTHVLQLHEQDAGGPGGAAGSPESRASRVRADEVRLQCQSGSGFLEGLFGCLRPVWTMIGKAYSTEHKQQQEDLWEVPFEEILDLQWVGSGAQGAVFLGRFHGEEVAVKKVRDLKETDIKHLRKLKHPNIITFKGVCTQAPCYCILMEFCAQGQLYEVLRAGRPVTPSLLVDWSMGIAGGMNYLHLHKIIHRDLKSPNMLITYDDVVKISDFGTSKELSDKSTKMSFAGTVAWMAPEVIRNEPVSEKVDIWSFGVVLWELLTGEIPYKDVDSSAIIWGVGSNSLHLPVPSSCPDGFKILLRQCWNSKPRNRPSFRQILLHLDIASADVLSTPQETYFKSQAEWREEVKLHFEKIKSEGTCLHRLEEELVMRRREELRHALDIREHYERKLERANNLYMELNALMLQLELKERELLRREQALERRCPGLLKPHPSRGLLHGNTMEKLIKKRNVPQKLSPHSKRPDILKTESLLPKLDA
Briefly: DLK TR-FRET inhibition assay. It is filed as biochemical. To be noted: 5 nM GST-DLK, 40 nM HIS-MKK4 K131M substrate, 30 μM ATP, 60 minutes at ambient temperature. In outline:
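Phosphorylated MKK4 was quantified by TR-FRET (Eu-labelled anti-phospho-MKK4, D2 anti-HIS; 3 h, 665 and 615 nm emission) after EDTA quench. Reactions held 5 nM GST-tagged DLK catalytic domain (1-520), 40 nM HIS-MKK4 K131M substrate, 30 μM ATP and compound (3-fold series from 20 uM), 60 min, room temperature, pH 7.5.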
With `CC(C)n1nc(-c2cnc(N)c(OC(F)(F)F)c2)cc1[C@H]1[C@@H]2C[C@H](N3CC4(CCCO4)C3)C[C@@H]21` [compound 226, 5-(5-((1R,3r,5S,6r)-3-(5-oxa-2-azaspiro[3.4]octan-2-yl)bicyclo [3.1.0]hexan-6-yl)-1-isopropyl-1H-pyrazol-3-yl)-3-(trifluoro-methoxy)pyridin-2-amine], the Ki was 3.2 nM. Then `Nc1ncc(-c2cc([C@H]3[C@@H]4C[C@H](N5CCOCC5)C[C@@H]43)n(CC(F)F)n2)cc1OC(F)(F)F` [compound 93, 5-(1-(2,2-difluoroethyl)-5-((1R,3r,5S,6r)-3-morpholinobicyclo [3.1.0]hexan-6-yl)-1H-pyrazol-3-yl)-3-(trifluoromethoxy)pyridin-2-amine], with 1.22 nM. Molecule `CC(C)n1nc(-c2cnc(N)c(C(F)(F)F)c2)cc1[C@H]1[C@@H]2C[C@H](N3CC(F)(F)C3)C[C@@H]21` [compound 54, 5-(5-((1R,3r,5S,6r)-3-(3,3-difluoro-azetidin-1-yl)bicyclo[3.1.0]hexan-6-yl)-1-isopropyl-1H-pyrazol-3-yl)-3-(trifluoromethyl) pyridin-2-amine] registered a Ki of 7.68 nM. Then `CC(C)n1nc(-c2cnc(N)c(C(F)(F)F)c2)cc1[C@H]1[C@@H]2CC(C#N)C[C@@H]21` (single isomer, unassigned) [compound 191], with 7.8 nM; and `COC1CCN([C@@H]2C[C@@H]3[C@H](C2)[C@H]3c2cc(-c3cnc(N)c(OC(F)F)c3)nn2C(C)C)CC1` [compound 250, 3-(difluoromethoxy)-5-(1-isopropyl-5-((1R,3s,5S,6r)-3-(4-methoxy-piperidin-1-yl)bicyclo[3.1.0]hexan-6-yl)-1H-pyrazol-3-yl) pyridin-2-amine], with 2 nM.

With `CC(C)n1nc(-c2cnc(N)c(OC(F)F)c2)cc1[C@H]1[C@@H]2CC(N3CCOCC(F)C3)C[C@@H]21` (single isomer, unassigned) [compound 169], the affinity, expressed as Ki, was 4.1 nM. `CC(C)n1nc(-c2cnc(N)c(C(F)(F)F)c2)cc1[C@@H]1[C@H]2CC[C@@H](N3CCOCC3)[C@H]21` (single isomer, unassigned) [compound 139, 5-(1-isopropyl-5-(2-morpholinobicyclo[3.1.0]hexan-6-yl)-1H-pyrazol-3-yl)-3-(trifluoromethyl) pyridin-2-amine] showed a Ki of 65.7 nM. On to `CC(C)n1nc(-c2cnc(N)c(OC(F)(F)F)c2)cc1[C@H]1[C@@H]2C[C@H](N(C)CC3COC3)C[C@@H]21` [compound 19, 5-(1-isopropyl-5-((1R,3r,5S,6r)-3-(methyl(oxetan-3-ylmethyl)amino)bicyclo[3.1.0]hexan-6-yl)-1H-pyrazol-3-yl)-3-(trifluoro-methoxy)pyridin-2-amine], for which affinity was put at a Ki of 2.97 nM. In turn, `CC(C)n1nc(-c2cnc(N)c(OC(F)F)c2)cc1C1[C@H]2CC(N3CCOCC(F)C3)C[C@@H]12` (single isomer, unassigned) [compound 175] yielded an inhibitory constant (Ki) of 5.5 nM.

For `Nc1ncc(-c2cc([C@@H]3[C@@H]4C[C@H](N5CCOCC5)C[C@@H]43)n(CC3CC3)n2)cc1OC(F)(F)F` [compound 283, 5-(1-(cyclopropylmethyl)-5-((1R,3r,5S,6s)-3-morpholinobicyclo [3.1.0]hexan-6-yl)-1H-pyrazol-3-yl)-3-(tritluoromethoxy) pyridin-2-amine], the affinity corresponds to a Ki of 209 nM.

On to `CC(C)n1nc(-c2cnc(N)c(C(F)(F)F)c2)cc1[C@H]1[C@@H]2C[C@H](N3CC(C#N)C3)C[C@@H]21` [compound 70, 1-((1R,3r,5S,6r)-6-(3-(6-amino-5-(trifIuoromethyl)pyridin-3-yl)-1-isopropyl-1H-pyrazol-5-yl)bicyclo[3.1.0]hexan-3-yl)azetidine-3-carbonitrile], for which the affinity, expressed as Ki, was 2.9 nM. Then `CC(C)n1nc(-c2cnc(N)c(OC(F)(F)F)c2)cc1[C@H]1[C@@H]2C[C@H](N3CC(F)(F)C3)C[C@@H]21` [compound 53, 5-(5-((1R,3r,5S,6r)-3-(3,3-difluoro-azetidin-1-yl)bicyclo[3.1.0]hexan-6-yl)-1-isopropyl-1H-pyrazol-3-yl)-3-(trifluoromethoxy) pyridin-2-amine], with 4.72 nM; and `CC(C)n1nc(-c2cnc(N)c(C(F)(F)F)c2)cc1[C@@H]1[C@H]2CC[C@H](O)[C@H]21` (single isomer, unassigned) [compound 142, 6-(3-(6-amino-5-trifluoromethylpyridin-3-yl)-1-isopropyl-1H-pyrazol-5-yl)bicyclo[3.1.0]hexan-2-ol], with 62.2 nM; and `CC(C)n1nc(-c2cnc(N)c(C(F)(F)F)c2)cc1[C@@H]1[C@@H]2C[C@@H](O)C[C@@H]21` [compound 122, (1R,3s,5S,6s)-6-(3-(6-amino-5-(trifluoromethyl)pyridin-3-yl)-1-isopropyl-1H-pyrazol-5-yl) bicyclo[3.1.0]hexan-3-ol], with above 321 nM. Molecule `CC(C)n1nc(-c2cnc(N)c(OC(F)(F)F)c2)cc1[C@H]1[C@@H]2C[C@H](N3CCO[C@@H](C)C3)C[C@@H]21` [compound 109, 5-(1-isopropyl-5-((1R,3r,5S,6S)-3-((S)-2-methylmorpholino)bicyclo[3.1.0]hexan-6-yl)-1H-pyrazol-3-yl)-3-(trifluoromethoxy) pyridin-2-amine] registered a Ki of 1.59 nM. Then `CC(C)n1nc(-c2cnc(N)c(OC(F)F)c2)cc1[C@H]1[C@@H]2C[C@@H](N3CCOCC3)C[C@@H]21` [compound 84, 3-(difluoromethoxy)-5-(1-isopropyl-5-((1R,3s,5S,6r)-3-morpholino-bicyclo[3.1.0]hexan-6-yl)-1H-pyrazol-3-yl)pyridin-2-amine], with 1.68 nM; and `Nc1ncc(-c2cc([C@H]3[C@@H]4C[C@@H](N5CCOCC5)C[C@@H]43)n(C3CCCC3)n2)cc1OC(F)F` [compound 130, 5-(1-cyclopentyl-5-((1R,3s,5S,6r)-3-morpholinobicyclo[3.1.0]hexan-6-yl)-1H-pyrazol-3-yl)-3-(difluoromethoxy)pyridin-2-amine], with 4.82 nM.

The molecule `CCN1CCN([C@@H]2C[C@@H]3[C@H](C2)[C@H]3c2cc(-c3cnc(N)c(C(F)(F)F)c3)nn2C(C)C)CC1` [compound 17, 5-(5-((1R,3s,5S,6r)-3-(4-ethylpiperazin-1-yl)bicyclo[3.1.0]hexan-6-yl)-1-isopropyl-1H-pyrazol-3-yl)-3-(trifluoromethyl)pyridin-2-amine] showed a Ki of 2.92 nM. With `CC(C)n1nc(-c2cnc(N)c(C(F)(F)F)c2)cc1[C@H]1[C@@H]2C[C@H](OC3COC3)C[C@@H]21` [compound 287, 5-(1-isopropyl-5-((1R,3r,5S,6r)-3-(oxetan-3-yloxy)bicyclo[3.1.0]hexan-6-yl)-1H-pyrazol-3-yl)-3-(trifluoromethyl)pyridin-2-amine], the Ki came out at 6.3 nM. Then `CC(C)n1nc(-c2cnc(N)c(C(F)(F)F)c2)cc1[C@H]1[C@@H]2C[C@H](N)C[C@@H]21` [compound 269, 5-(5-((1R,3r,5S,6r)-3-amino-bicyclo[3.1.0]hexan-6-yl)-1-isopropyl-1H-pyrazol-3-yl)-3-(trifluoro-methyl)pyridin-2-amine], with 4.1 nM. Under `CC(C)n1nc(-c2cnc(N)c(OC(F)(F)F)c2)cc1[C@H]1[C@@H]2C[C@H](N3C[C@@H]4C[C@H]3CO4)C[C@@H]21` [compound 71, 5-(5-((1R,3r,5S,6S)-3-((1S,4S)-2-oxa-5-azabicyclo[2.2.1]heptan-5-yl)bicyclo[3.1.0]hexan-6-yl)-1-isopropyl-1H-pyrazol-3-yl)-3-(trifluoromethoxy)pyridin-2-amine] stands 3.62 nM; under `CC(C)n1nc(-c2cnc(N)c(OC(F)F)c2)cc1[C@H]1[C@@H]2C[C@@H](N3CC4CC(C3)O4)C[C@@H]21` [compound 278, 5-(5-((1R,3s,5S,6r)-3-(6-oxa-3-azabicyclo[3.1.1]heptan-3-yl)bicyclo[3.1.0]hexan-6-yl)-1-isopropyl-1H-pyrazol-3-yl)-3-(difluoromethoxy)pyridin-2-amine], 1.4 nM; under `CC(C)n1nc(-c2cnc(N)c(OC(F)F)c2)cc1[C@H]1[C@@H]2CC(=O)C[C@@H]21` [compound 85, (1R,5S,6r)-6-(3-(6-amino-5-(difluoro-methoxy)pyridin-3-yl)-1-isopropyl-1H-pyrazol-5-yl)bicyclo [3.1.0]hexan-3-one], 47.8 nM.

Molecule `COCCN(C)[C@H]1C[C@@H]2[C@H](C1)[C@H]2c1cc(-c2cnc(N)c(C(F)(F)F)c2)nn1C(C)C` [compound 284, 5-(1-isopropyl-5-((1R,3r,5S,6r)-3-((2-methoxyethyl)(methyl)amino)bicyclo[3.l.0]hexan-6-yl)-1H-pyrazol-3-yl)-3-(trifluoromethyl) pyridin-2-amine] displayed a Ki of 5.7 nM.

As usually defined, the Ki is the equilibrium dissociation constant of an inhibitor or competing ligand from its target. A high value points to a looser hold on the target.
